# Measurements taken from patent publication US6486322B1, “Azaindole derivatives, process for their preparation, and their use as antitumor agents” (Pharmacia Italia S.p.A., priority 2000, dated 2002).
row,Structure (SMILES),melting point
1,"NC(=O)C(=Cc1c[nH]c2ncccc12)c1ccccc1 [compound 299, 2-phenyl-3-(1H-pyrrolo[2,3-b]pyridin-3-yl)-2-propenamide]",222 to 224 °C
2,"O=C(O)C(=Cc1c[nH]c2ncccc12)c1ccccc1 [compound 300, 2-phenyl-3-(1H-pyrrolo[2,3-b]pyridin-3-yl)-2-propenoic acid]",> 230 °C
3,"CCCCNC(=O)C(=Cc1c[nH]c2ncccc12)c1ccccc1 [compound 301, N-butyl-2-phenyl-3-(1H-pyrrolo[2,3-b]pyridin-3-yl)-2-propenamide]",177 to 179 °C (dec.)
